The subject of one experiment is Enterococcus faecalis. The experiment is described as follows: Antibacterial activity against Streptococcus faecalis. It is filed as functional.
The next experiment has as its system Pseudomonas aeruginosa. The experiment in a line: Antibacterial activity against Pseudomonas aeruginosa. Type of experiment: functional.
The next experiment relates to Klebsiella pneumoniae. The experiment is described as follows: Antibacterial activity against Klebsiella pneumoniae. Type of experiment: functional.
The next experiment concerns Escherichia coli. The experiment in a line: Antibacterial activity against Escherichia coli. It is filed as functional.
In a further experiment the test system is Staphylococcus aureus. The experiment in a line: Antibacterial activity against Staphylococcus aureus. It is filed as functional.
The subject of the next experiment is Candida albicans. The experiment in a line: Antifungal activity against Candida albicans. It is filed as functional.
The test system of another experiment is Candida parapsilosis. The experiment in a line: Antifungal activity against Candida parapsilosis. Type of experiment: functional. The settings on record: Lodderomyces parapsilosis, ATCC 22019.
For a further experiment, the system named is Aspergillus fumigatus. The experiment is described as follows: Antifungal activity against Aspergillus fumigatus. It is filed as functional.
The test system of a further experiment is Trichophyton benhamiae. The experiment in a line: Antifungal activity against Trichophyton mentagrophytes. It is filed as functional, Arthroderma benhamiae.
For the next experiment, the system named is Cryptococcus neoformans. The experiment in a line: Antifungal activity against Cryptococcus neoformans. Type of experiment: functional.
A further experiment relates to Sporothrix schenckii. The experiment in a line: Antifungal activity against Sporothrix schenckii. Type of experiment: functional.

One may read the MIC as the smallest concentration in the dilution series that meets the test's criterion for growth inhibition. A high value points to weaker potency. The MIC90 is the lowest concentration that inhibits either 90% of growth or 90% of the strains tested, depending on the study. A high value points to weaker potency.

Values after ≈ are worked out from the molar mass of the structure shown. Where only a bound is given, the exact number is not on record here.

As for `CC(C)N(C1=C(O)C(=O)c2ccccc2C1=O)C(C)C`, the minimum inhibitory concentration (MIC) in the experiment on Enterococcus faecalis is over 50 µg/mL; against Pseudomonas aeruginosa, 50 µg/mL (≈ 183 µM); in the experiment on Klebsiella pneumoniae, over 50 µg/mL; with Escherichia coli it was over 50 µg/mL; against Staphylococcus aureus, over 50 µg/mL.
Take `COC(=O)C(CCSC)/N=C1\C=C(O)c2ccccc2C1=O` (centres undefined): the MIC was 12.5 µg/mL (≈ 39.1 µM) against Enterococcus faecalis; over 50 µg/mL against Candida albicans; over 50 µg/mL in the experiment with Candida parapsilosis; over 50 µg/mL against Pseudomonas aeruginosa; over 50 µg/mL with Aspergillus fumigatus; 6.25 µg/mL (≈ 19.6 µM) in the experiment on Klebsiella pneumoniae. The MIC in the experiment with Trichophyton benhamiae was over 50 µg/mL; with Cryptococcus neoformans it was 25 µg/mL (≈ 78.3 µM); against Escherichia coli it was over 50 µg/mL; in the experiment with Staphylococcus aureus, over 50 µg/mL; in the experiment with Sporothrix schenckii, over 50 µg/mL.
With `COC(=O)C/N=C1\C=C(O)c2ccccc2C1=O`, the MIC against Candida albicans is 50 µg/mL (≈ 204 µM); against Candida parapsilosis, 50 µg/mL (≈ 204 µM); in the experiment with Aspergillus fumigatus it was 25 µg/mL (≈ 102 µM); with Trichophyton benhamiae it was over 50 µg/mL; in the experiment with Cryptococcus neoformans, 50 µg/mL (≈ 204 µM); with Sporothrix schenckii, 50 µg/mL (≈ 204 µM).
As for `COC(=O)C(C)/N=C1/C(=O)c2ccccc2C(O)=C1O` (centres undefined), the MIC with Candida albicans was over 50 µg/mL; with Candida parapsilosis it was 50 µg/mL (≈ 182 µM); in the experiment with Aspergillus fumigatus it was over 50 µg/mL; against Trichophyton benhamiae, over 50 µg/mL; with Cryptococcus neoformans, 25 µg/mL (≈ 90.8 µM); against Sporothrix schenckii, over 50 µg/mL.
Take `CC(C)N(C1=CC(=O)c2c(O)ccc(O)c2C1=O)C(C)C`: the MIC in the experiment with Candida albicans is over 50 µg/mL; with Aspergillus fumigatus, over 50 µg/mL; against Trichophyton benhamiae it was 50 µg/mL (≈ 173 µM); in the experiment with Cryptococcus neoformans, over 50 µg/mL; in the experiment with Sporothrix schenckii, over 50 µg/mL.
In the case of `C[C@@H]1[C@H](O)[C@@H](C)/C=C/C=C/C=C/C=C/C=C/C=C/C=C/[C@H](O[C@@H]2O[C@H](C)[C@@H](O)[C@H](N)[C@@H]2O)C[C@@H]2O[C@](O)(C[C@@H](O)C[C@@H](O)[C@H](O)CC[C@@H](O)C[C@@H](O)CC(=O)O[C@H]1C)C[C@H](O)[C@H]2C(=O)O` [AMPHOTERICIN B], the values for the MIC in the experiment on Candida albicans, against Trichophyton benhamiae and in the experiment on Cryptococcus neoformans were 0.39 µg/mL (≈ 0.422 µM), 1.56 µg/mL (≈ 1.69 µM) and 0.78 µg/mL (≈ 0.844 µM), respectively.
On to `OC(Cn1cncn1)(Cn1cncn1)c1ccc(F)cc1F` [FLUCONAZOLE], for which the MIC in the experiment on Candida albicans is 1 µg/mL (≈ 3.27 µM); against Candida parapsilosis, 2 µg/mL (≈ 6.53 µM); against Aspergillus fumigatus, 2 µg/mL (≈ 6.53 µM); against Trichophyton benhamiae, 0.5 µg/mL (≈ 1.63 µM); against Cryptococcus neoformans, 1 µg/mL (≈ 3.27 µM); against Sporothrix schenckii it was 2 µg/mL (≈ 6.53 µM).
For `NCC[C@H](O)C(=O)N[C@@H]1C[C@H](N)[C@@H](O[C@H]2O[C@H](CN)[C@@H](O)[C@H](O)[C@H]2O)[C@H](O)[C@H]1O[C@H]1O[C@H](CO)[C@@H](O)[C@H](N)[C@H]1O` [AMIKACIN], the minimal inhibitory concentration (MIC) against Enterococcus faecalis is over 64 µg/mL; in the experiment with Pseudomonas aeruginosa, 2 µg/mL (≈ 3.42 µM); in the experiment with Klebsiella pneumoniae, 1 µg/mL (≈ 1.71 µM); with Escherichia coli, 1 µg/mL (≈ 1.71 µM); against Staphylococcus aureus it was 16 µg/mL (≈ 27.3 µM).
As to `COC(=O)C/N=C1/C(=O)c2ccccc2C(O)=C1O`, the MIC was 50 µg/mL (≈ 191 µM) in the experiment on Enterococcus faecalis; 50 µg/mL (≈ 191 µM) with Pseudomonas aeruginosa; over 50 µg/mL with Klebsiella pneumoniae; 50 µg/mL (≈ 191 µM) against Escherichia coli; 50 µg/mL (≈ 191 µM) against Staphylococcus aureus.
Consider `COC(=O)C(CCSC)/N=C1/C(=O)c2ccccc2C(O)=C1O` (centres undefined), for which the MIC in the experiment with Enterococcus faecalis was 25 µg/mL (≈ 74.5 µM); in the experiment with Candida albicans it was 12.5 µg/mL (≈ 37.3 µM); in the experiment on Candida parapsilosis it was 25 µg/mL (≈ 74.5 µM); in the experiment on Pseudomonas aeruginosa, over 50 µg/mL; with Aspergillus fumigatus, 12.5 µg/mL (≈ 37.3 µM); in the experiment with Klebsiella pneumoniae it was over 50 µg/mL. Moreover, the MIC in the experiment with Trichophyton benhamiae was 12.5 µg/mL (≈ 37.3 µM); with Cryptococcus neoformans, 12.5 µg/mL (≈ 37.3 µM); against Escherichia coli, over 50 µg/mL; in the experiment on Staphylococcus aureus it was over 50 µg/mL; with Sporothrix schenckii, 25 µg/mL (≈ 74.5 µM).
In the case of `O=C1C(=O)c2ccccc2C(O)=C1Sc1ncc[nH]1`, the MIC in the experiment on Enterococcus faecalis is 25 µg/mL (≈ 91.8 µM); with Candida albicans it was over 50 µg/mL; in the experiment on Candida parapsilosis it was over 50 µg/mL; with Pseudomonas aeruginosa, over 50 µg/mL; in the experiment with Aspergillus fumigatus, over 50 µg/mL; against Klebsiella pneumoniae it was over 50 µg/mL. Besides, the MIC against Trichophyton benhamiae was over 50 µg/mL; against Cryptococcus neoformans it was 50 µg/mL (≈ 184 µM); with Escherichia coli, over 50 µg/mL; with Staphylococcus aureus it was 50 µg/mL (≈ 184 µM); in the experiment with Sporothrix schenckii, over 50 µg/mL.
In the case of GENTAMICIN, the MIC in the experiment with Pseudomonas aeruginosa was found to be 0.78 µg/mL; with Klebsiella pneumoniae it was 0.39 µg/mL; against Staphylococcus aureus, 0.78 µg/mL.
Take `NC[C@H]1O[C@H](O[C@H]2[C@H](O)[C@@H](O[C@H]3O[C@H](CO)[C@@H](O)[C@H](N)[C@H]3O)[C@H](N)C[C@@H]2N)[C@H](N)C[C@@H]1O` [TOBRAMYCIN]: the MIC in the experiment on Enterococcus faecalis stood at 32 µg/mL (≈ 68.4 µM); against Pseudomonas aeruginosa, 4 µg/mL (≈ 8.56 µM); against Klebsiella pneumoniae, 1 µg/mL (≈ 2.14 µM); in the experiment with Escherichia coli, 0.5 µg/mL (≈ 1.07 µM); against Staphylococcus aureus, 0.25 µg/mL (≈ 0.535 µM).
On to `NC[C@H]1O[C@H](O[C@H]2[C@H](O)[C@@H](O[C@H]3O[C@H](CO)[C@@H](O)[C@H](N)[C@H]3O)[C@H](N)C[C@@H]2N)[C@H](O)[C@@H](O)[C@@H]1O` [KANAMYCIN], for which the MIC90 with Pseudomonas aeruginosa is over 128 µg/mL; in the experiment with Klebsiella pneumoniae, 32 µg/mL (≈ 66 µM); in the experiment with Escherichia coli it was 16 µg/mL (≈ 33 µM); against Staphylococcus aureus it was 2 µg/mL (≈ 4.13 µM).
`COC(=O)C(C)/N=C1\C=C(O)c2ccccc2C1=O` (centres undefined): the MIC with Enterococcus faecalis was over 50 µg/mL; with Pseudomonas aeruginosa it was over 50 µg/mL; against Klebsiella pneumoniae, 25 µg/mL (≈ 96.4 µM); in the experiment on Escherichia coli, over 50 µg/mL; with Staphylococcus aureus, over 50 µg/mL.
For the compound `Clc1ccc(COC(Cn2ccnc2)c2ccc(Cl)cc2Cl)c(Cl)c1` (centres undefined) [MICONAZOLE], the MIC in the experiment with Candida albicans was 25 µg/mL (≈ 60.1 µM); against Aspergillus fumigatus it was 12.5 µg/mL (≈ 30 µM); against Trichophyton benhamiae, under 0.78 µg/mL; in the experiment with Cryptococcus neoformans, 12.5 µg/mL (≈ 30 µM).
For `COC(=O)C(CC(C)C)/N=C1\C=C(O)c2ccccc2C1=O` (centres undefined), the MIC in the experiment on Enterococcus faecalis is 12.5 µg/mL (≈ 41.5 µM); with Candida albicans, over 50 µg/mL; against Candida parapsilosis, 50 µg/mL (≈ 166 µM); in the experiment on Pseudomonas aeruginosa, over 50 µg/mL; in the experiment on Aspergillus fumigatus, over 50 µg/mL; in the experiment on Klebsiella pneumoniae it was 6.25 µg/mL (≈ 20.7 µM). Also, the MIC with Trichophyton benhamiae was over 50 µg/mL; in the experiment with Cryptococcus neoformans, 25 µg/mL (≈ 83 µM); in the experiment with Escherichia coli it was 12.5 µg/mL (≈ 41.5 µM); against Staphylococcus aureus it was 12.5 µg/mL (≈ 41.5 µM); in the experiment on Sporothrix schenckii it was over 50 µg/mL.
Regarding `O=C1c2ccccc2C(=O)c2c1sc1nccn21`, the MIC against Enterococcus faecalis is 25 µg/mL (≈ 98.3 µM); in the experiment with Candida albicans it was 50 µg/mL (≈ 197 µM); against Pseudomonas aeruginosa, over 50 µg/mL; in the experiment with Aspergillus fumigatus it was 25 µg/mL (≈ 98.3 µM); in the experiment with Klebsiella pneumoniae, over 50 µg/mL; in the experiment with Trichophyton benhamiae it was 25 µg/mL (≈ 98.3 µM). Moreover, the MIC against Cryptococcus neoformans was found to be 12.5 µg/mL (≈ 49.2 µM); with Escherichia coli it was 50 µg/mL (≈ 197 µM); with Staphylococcus aureus, 50 µg/mL (≈ 197 µM); in the experiment with Sporothrix schenckii it was 25 µg/mL (≈ 98.3 µM).
Consider `O=C1c2sc3nccn3c2C(=O)c2c(O)ccc(O)c21`, for which the MIC against Enterococcus faecalis was 25 µg/mL (≈ 87.3 µM); in the experiment on Candida albicans, 25 µg/mL (≈ 87.3 µM); against Pseudomonas aeruginosa, over 50 µg/mL; in the experiment with Aspergillus fumigatus, over 50 µg/mL; against Klebsiella pneumoniae, over 50 µg/mL; against Trichophyton benhamiae, 25 µg/mL (≈ 87.3 µM). Further, the MIC in the experiment with Cryptococcus neoformans is under 12.5 µg/mL; against Escherichia coli it was 50 µg/mL (≈ 175 µM); in the experiment on Staphylococcus aureus it was 50 µg/mL (≈ 175 µM); in the experiment with Sporothrix schenckii, under 12.5 µg/mL.
For NYSTATIN, the figures for the MIC against Candida albicans, in the experiment on Cryptococcus neoformans and against Sporothrix schenckii were 7.8 µg/mL, 3.5 µg/mL and 13.2 µg/mL, respectively.

The values are drawn from ChEMBL document CHEMBL1141945, “Synthesis and biological evaluation of novel (L)-alpha-amino acid methyl ester, heteroalkyl, and aryl substituted 1,4-naphthoquinone derivatives as antifungal and antibacterial agents” (2005).
